Legend:
[1] = tested on: NCI-H226 (non-small cell lung cancer); assay: NCI-60 SRB cytotoxicity screen; type: cell-based; conditions: NCI-H226, single dose 10 μM; for inhibition at 10 µM: Homo sapiens, read-out: growth inhibition (GI%)
SF-539 (CNS cancer) = assay: NCI-60 SRB cytotoxicity screen; type: cell-based; conditions: Homo sapiens; SF-539, single dose 10 μM; read-out: growth inhibition (GI%)
CAKI-1 (renal cancer) = assay: NCI-60 SRB cytotoxicity screen; type: cell-based; conditions: Homo sapiens; CAKI-1, single dose 10 μM; read-out: growth inhibition (GI%)
MALME-3M (melanoma) = assay: NCI-60 SRB cytotoxicity screen; type: cell-based; conditions: Homo sapiens, single dose 10 μM, read-out: growth inhibition (GI%)
LOX IMVI (melanoma) = assay: NCI-60 SRB cytotoxicity screen; type: cell-based; conditions: Homo sapiens, single dose 10 μM, read-out: growth inhibition (GI%)
HT29 (colon cancer) = assay: NCI-60 SRB cytotoxicity screen; type: cell-based; conditions: Homo sapiens, HT-29; HT29, single dose 10 μM; read-out: growth inhibition (GI%)
U251 (CNS cancer) = assay: NCI-60 SRB cytotoxicity screen; type: cell-based; conditions: Homo sapiens, U-251; U251, single dose 10 μM; read-out: growth inhibition (GI%)
ACHN (renal cancer) = assay: NCI-60 SRB cytotoxicity screen; type: cell-based; conditions: Homo sapiens, single dose 10 μM, read-out: growth inhibition (GI%)
CCRF-CEM (leukemia) = assay: NCI-60 SRB cytotoxicity screen; type: cell-based; conditions: Homo sapiens, single dose 10 μM, read-out: growth inhibition (GI%)
TK-10 (renal cancer) = assay: NCI-60 SRB cytotoxicity screen; type: cell-based; conditions: Homo sapiens; TK-10, single dose 10 μM; read-out: growth inhibition (GI%)
[2] = tested on: NCI-H322M (non-small cell lung cancer); assay: NCI-60 SRB cytotoxicity screen; type: cell-based; conditions: Homo sapiens, single dose 10 μM, read-out: growth inhibition (GI%)
SN12C (renal cancer) = assay: NCI-60 SRB cytotoxicity screen; type: cell-based; conditions: Homo sapiens, single dose 10 μM, read-out: growth inhibition (GI%)
MOLT-4 (leukemia) = assay: NCI-60 SRB cytotoxicity screen; type: cell-based; conditions: Homo sapiens; MOLT-4, single dose 10 μM; read-out: growth inhibition (GI%)
[3] = tested on: NCI/ADR-RES (ovarian cancer); assay: NCI-60 SRB cytotoxicity screen; type: cell-based; conditions: Homo sapiens, single dose 10 μM, read-out: growth inhibition (GI%)
SNB-75 (CNS cancer) = assay: NCI-60 SRB cytotoxicity screen; type: cell-based; conditions: Homo sapiens, SNB-75, SNB-75, single dose 10 μM; read-out: growth inhibition (GI%)
SW-620 (colon cancer) = assay: NCI-60 SRB cytotoxicity screen; type: cell-based; conditions: Homo sapiens; SW-620, single dose 10 μM; read-out: growth inhibition (GI%)
UACC-257 (melanoma) = assay: NCI-60 SRB cytotoxicity screen; type: cell-based; conditions: Homo sapiens; UACC-257, single dose 10 μM; read-out: growth inhibition (GI%)
SK-MEL-2 (melanoma) = assay: NCI-60 SRB cytotoxicity screen; type: cell-based; conditions: Homo sapiens; SK-MEL-2, single dose 10 μM; read-out: growth inhibition (GI%)
[4] = tested on: EKVX (non-small cell lung cancer); assay: NCI-60 SRB cytotoxicity screen; type: cell-based; conditions: Homo sapiens, single dose 10 μM, read-out: growth inhibition (GI%)
786-0 (renal cancer) = assay: NCI-60 SRB cytotoxicity screen; type: cell-based; conditions: Homo sapiens; 786-0, single dose 10 μM; read-out: growth inhibition (GI%)
MDA-MB-435 (melanoma) = assay: NCI-60 SRB cytotoxicity screen; type: cell-based; conditions: Homo sapiens, MDA-MB-435, read-out: growth inhibition (GI%)
[5] = tested on: HOP-92 (non-small cell lung cancer); assay: NCI-60 SRB cytotoxicity screen; type: cell-based; conditions: Homo sapiens; HOP-92, single dose 10 μM; read-out: growth inhibition (GI%)
PC-3 (prostate cancer) = assay: NCI-60 SRB cytotoxicity screen; type: cell-based; conditions: PC-3, single dose 10 μM; read-out: growth inhibition (GI%)
OVCAR-4 (ovarian cancer) = assay: NCI-60 SRB cytotoxicity screen; type: cell-based; conditions: Homo sapiens; OVCAR-4, single dose 10 μM; read-out: growth inhibition (GI%)
M14 (melanoma) = assay: NCI-60 SRB cytotoxicity screen; type: cell-based; conditions: Homo sapiens; M14, single dose 10 μM; read-out: growth inhibition (GI%)
HCT-15 (colon cancer) = assay: NCI-60 SRB cytotoxicity screen; type: cell-based; conditions: Homo sapiens; HCT-15, single dose 10 μM; read-out: growth inhibition (GI%)
[6] = tested on: A549/ATCC (non-small cell lung cancer); assay: NCI-60 SRB cytotoxicity screen; type: cell-based; conditions: Homo sapiens, single dose 10 μM, read-out: growth inhibition (GI%)
SK-OV-3 (ovarian cancer) = assay: NCI-60 SRB cytotoxicity screen; type: cell-based; conditions: Homo sapiens; SK-OV-3, single dose 10 μM; read-out: growth inhibition (GI%)
[7] = tested on: MDA-MB-231/ATCC (breast cancer); assay: NCI-60 SRB cytotoxicity screen; type: cell-based; conditions: Homo sapiens, MDA-MB-231, read-out: growth inhibition (GI%)
A498 (renal cancer) = assay: NCI-60 SRB cytotoxicity screen; type: cell-based; conditions: Homo sapiens; A498, single dose 10 μM; read-out: growth inhibition (GI%)
UO-31 (renal cancer) = assay: NCI-60 SRB cytotoxicity screen; type: cell-based; conditions: Homo sapiens; UO-31, single dose 10 μM; read-out: growth inhibition (GI%)
SF-295 (CNS cancer) = assay: NCI-60 SRB cytotoxicity screen; type: cell-based; conditions: Homo sapiens; SF-295, single dose 10 μM; read-out: growth inhibition (GI%)
OVCAR-5 (ovarian cancer) = assay: NCI-60 SRB cytotoxicity screen; type: cell-based; conditions: Homo sapiens; OVCAR-5, single dose 10 μM; read-out: growth inhibition (GI%)
[8] = tested on: NCI-H460 (non-small cell lung cancer); assay: NCI-60 SRB cytotoxicity screen; type: cell-based; conditions: Homo sapiens; NCI-H460, single dose 10 μM; read-out: growth inhibition (GI%)
OVCAR-8 (ovarian cancer) = assay: NCI-60 SRB cytotoxicity screen; type: cell-based; conditions: Homo sapiens; OVCAR-8, single dose 10 μM; read-out: growth inhibition (GI%)

Structure (SMILES) | inhibition at 10 µM [1] [%] | inhibition at 10 µM (SF-539 (CNS cancer)) [%] | inhibition at 10 µM (CAKI-1 (renal cancer)) [%] | inhibition at 10 µM (MALME-3M (melanoma)) [%] | inhibition at 10 µM (LOX IMVI (melanoma)) [%] | inhibition at 10 µM (HT29 (colon cancer)) [%] | inhibition at 10 µM (U251 (CNS cancer)) [%] | inhibition at 10 µM (ACHN (renal cancer)) [%] | inhibition at 10 µM (CCRF-CEM (leukemia)) [%] | inhibition at 10 µM (TK-10 (renal cancer)) [%] | inhibition at 10 µM [2] [%] | inhibition at 10 µM (SN12C (renal cancer)) [%] | inhibition at 10 µM (MOLT-4 (leukemia)) [%] | inhibition at 10 µM [3] [%] | inhibition at 10 µM (SNB-75 (CNS cancer)) [%] | inhibition at 10 µM (SW-620 (colon cancer)) [%] | inhibition at 10 µM (UACC-257 (melanoma)) [%] | melting point [°C] | inhibition at 10 µM (SK-MEL-2 (melanoma)) [%] | inhibition at 10 µM [4] [%] | further results
CCc1cccc2cc(C=CC(=O)c3ccc(OC)cc3)c(Cl)nc12 [Compound 3a, 3-(2-Chloro-8-ethylquinolin-3-yl)-1-(4-methoxyphenyl)prop-2-en-1-one] | 79.9 | 18.9 | 19.3 | < 10 | 11.3 | < 10 | 17.9 | < 10 | 26.9 | < 10 | < 10 | < 10 | 16.8 | < 10 | < 10 | < 10 | < 10 | 138 to 140 | < 10 | < 10 | inhibition at 10 µM (786-0 (renal cancer)): < 10%; inhibition at 10 µM (MDA-MB-435 (melanoma)): < 10%; inhibition at 10 µM [5]: 27.3%; inhibition at 10 µM (PC-3 (prostate cancer)): < 10%; inhibition at 10 µM (OVCAR-4 (ovarian cancer)): 13.5%; inhibition at 10 µM (M14 (melanoma)): < 10%; inhibition at 10 µM (HCT-15 (colon cancer)): < 10%; inhibition at 10 µM [6]: < 10%; inhibition at 10 µM (SK-OV-3 (ovarian cancer)): < 10%; inhibition at 10 µM [7]: < 10%; inhibition at 10 µM (A498 (renal cancer)): < 10%; inhibition at 10 µM (UO-31 (renal cancer)): < 10%; inhibition at 10 µM (SF-295 (CNS cancer)): < 10%; inhibition at 10 µM (OVCAR-5 (ovarian cancer)): < 10%; inhibition at 10 µM [8]: < 10%; inhibition at 10 µM (OVCAR-8 (ovarian cancer)): < 10%
CCc1cccc2cc(C=CC(=O)c3ccc(OC)c(OC)c3)c(Cl)nc12 [Compound 3b, 3-(2-Chloro-8-ethylquinolin-3-yl)-1-(3,4-dimethoxyphenyl)prop-2-en-1-one] | > 100 | 99.4 | 40.2 | < 10 | 43.4 | 26.9 | 65.2 | 24.5 | 65 | < 10 | 22.4 | 23.7 | 49.2 | 45.8 | > 100 | 72.2 | < 10 | 135 to 137 | < 10 | < 10 | growth inhibition (GI%) [1]: lethal effect; inhibition at 10 µM (786-0 (renal cancer)): 25.7%; inhibition at 10 µM (MDA-MB-435 (melanoma)): 17.1%; inhibition at 10 µM [5]: 27.4%; inhibition at 10 µM (PC-3 (prostate cancer)): 32%; inhibition at 10 µM (OVCAR-4 (ovarian cancer)): 42.3%; inhibition at 10 µM (M14 (melanoma)): < 10%; inhibition at 10 µM (HCT-15 (colon cancer)): 20.4%; inhibition at 10 µM [6]: 43.5%; inhibition at 10 µM (SK-OV-3 (ovarian cancer)): < 10%; inhibition at 10 µM [7]: 29.3%; inhibition at 10 µM (A498 (renal cancer)): < 10%; inhibition at 10 µM (UO-31 (renal cancer)): 41.8%; inhibition at 10 µM (SF-295 (CNS cancer)): 21.8%; inhibition at 10 µM (OVCAR-5 (ovarian cancer)): 12.5%; inhibition at 10 µM [8]: 27.7%; inhibition at 10 µM (OVCAR-8 (ovarian cancer)): 57.8%
CCc1cccc2cc(C=CC(=O)c3cc(OC)c(OC)c(OC)c3)c(Cl)nc12 [Compound 3c, 3-(2-Chloro-8-ethylquinolin-3-yl)-1-(3,4,5-trimethoxyphenyl)prop-2-en-1-one] | > 100 | > 100 | 38.7 | 14.8 | 72 | 77.4 | 78.2 | 32 | 87.8 | < 10 | 31.1 | 42.3 | 49.9 | 67.6 | 61.7 | 65.4 | 43.6 | 140 to 142 | 44.5 | 17.1 | inhibition at 10 µM (786-0 (renal cancer)): 41.7%; inhibition at 10 µM (MDA-MB-435 (melanoma)): 59.2%; inhibition at 10 µM [5]: 26.8%; inhibition at 10 µM (PC-3 (prostate cancer)): 53.5%; inhibition at 10 µM (OVCAR-4 (ovarian cancer)): 42%; inhibition at 10 µM (M14 (melanoma)): 31.9%; inhibition at 10 µM (HCT-15 (colon cancer)): 44.5%; inhibition at 10 µM [6]: 52.1%; inhibition at 10 µM (SK-OV-3 (ovarian cancer)): 17.4%; inhibition at 10 µM [7]: 39.5%; inhibition at 10 µM (A498 (renal cancer)): < 10%; inhibition at 10 µM (UO-31 (renal cancer)): 45%; inhibition at 10 µM (SF-295 (CNS cancer)): 31.3%; inhibition at 10 µM (OVCAR-5 (ovarian cancer)): 26.8%; inhibition at 10 µM [8]: 18.4%; inhibition at 10 µM (OVCAR-8 (ovarian cancer)): 84%

From PMC11240139, “Exploring the antitumor potential of novel quinoline derivatives via tubulin polymerization inhibition in breast cancer; design, synthesis and molecular docking” (RSC Advances, 2024)
